One data set deals with HCC827. In words: Cytotoxicity against gefitinib-resistant human HCC827 cells assessed as inhibition of cell proliferation by MTS assay. The format is functional, cell-based. A general note: Formazan colour is commonly taken as a measure of viable cells.
The target in data set [1] is Bcr/Abl fusion protein (Homo sapiens, UniProt P00519, E255K). Briefly: Inhibition of imatinib-resistant BCR-ABL E255K mutant (unknown origin) expressed in mouse BA/F3 cells assessed as decrease in cell viability after 48 hrs by trypan blue exclusion assay. The format is cell-based.
The target in data set [2] is Bcr/Abl fusion protein (Homo sapiens, UniProt P00519, T315I). In words: Inhibition of imatinib-resistant BCR-ABL T315I mutant (unknown origin) expressed in mouse BA/F3 cells assessed as decrease in cell viability after 48 hrs by trypan blue exclusion assay. The format is cell-based.
In data set [3] the target is Bcr/Abl fusion protein (Homo sapiens, UniProt P00519). Briefly: Inhibition of BCR-ABL (unknown origin) expressed in mouse BA/F3 cells assessed as decrease in cell viability after 48 hrs by trypan blue exclusion assay. It is filed as cell-based.
Another data set concerns NCI-H3122. In words: Cytotoxicity against crizotinib-resistant human NCI-H3122 cells assessed as cell growth inhibition after 72 hrs by trypan blue exclusion assay. The format is functional. The note with it: NCI-H3122, 72 h.
Data set [4] concerns Mus musculus. Briefly: In vivo inhibition of BCR-ABL/T315I mutant expressed in bone marrow cells transplanted in mouse assessed as level of cells expressing gatekeeper mutation at 50 mg/kg once every 2 days measured after 28 days. The format is functional. Also noted: scale not given: the % may be the effect or the level left.
A short description of data set [5]: Cytotoxicity against HGF-induced erlotinib-resistant human Ma1 cells assessed as inhibition of cell growth after 72 hrs by MTT assay. The format is functional, cell-based.
The test system of another data set is PC-9. Briefly: Cytotoxicity against HGF-induced erlotinib-resistant human PC9 cells assessed as inhibition of cell growth after 72 hrs by MTT assay. It is filed as functional, cell-based. The note with it: PC-9, 72 h.
Data set [6] deals with A-375. In words: Cytotoxicity against human A375 cells assessed as decrease in cell viability after 72 hrs by CellTiter-Glo luminescence assay. Conditions: A-375, 72 h. It is filed as functional, cell-based.
A short description of data set [7]: Inhibition of E6a/b;A20 EML4-ALK (unknown origin) expressed in human NCI-H2228 cells assessed as decrease in cell viability after 72 hrs by CellTiter-Glo luminescence assay. Conditions: NCI-H2228, 72 h.
Data set [8] can be described thus: Cytotoxicity against human NB39 cells assessed as decrease in cell viability after 72 hrs by CellTiter-Glo luminescence assay. Conditions: NB39, 72 h. A general note: Cellular ATP, detected with luciferase, serves as a proxy for viable cell number.
Data set [9] in a line: Inhibition of E13;A20 EML4-ALK variant (unknown origin) expressed in human NCI-H3122 cells assessed as decrease in cell viability after 72 hrs by CellTiter-Glo luminescence assay. The format is cell-based. The note with it: NCI-H3122, 72 h.
Data set [10] relates to Mus musculus. In words: In vivo inhibition of BCR-ABL/T315I mutant expressed in bone marrow cells transplanted in mouse assessed as level of cells expressing gatekeeper mutation at 100 mg/kg, bid measured after 15 days. The format is functional. Also noted: scale not given: the % may be the effect or the level left.
The nature of data set [11]: Toxicity in human H1650 cells expressing E746-A750 EGFR deletion mutant xenografted in mouse administered ip 3 times per week. The note with it: in vivo. It is filed as organism-based. (Xenograft models place foreign cells or tissue in a host animal.)
Data set [12] can be described thus: Toxicity in human H3255 cells expressing L858R EGFR mutant xenografted in mouse administered ip 3 times per week. The format is organism-based. The note with it: in vivo.
A short description of data set [13]: Toxicity in human H1975 cells xenografted in mouse administered ip 3 times per week. The format is organism-based. Conditions: in vivo.
Data set [14] deals with A-375. Briefly: animal or person. Conditions: Mus musculus, A-375, iv, read-out: TGI.
Description: Antitumor activity against vemurafenib-resistant human A375 cells xenografted in mouse assessed as tumor growth inhibition at 150 mg/kg, iv dosed as weekly treatment in presence of selumetinib
Another data set in a line: cells. The note with it: Homo sapiens, BaF3, 24 h.
Data set [15] is described as follows: Toxicity in iv dosed NSCLC patient dosed weekly for 3 weeks on four week cycle during phase-1 clinical trial. It is filed as organism-based. The note with it: human, in vivo, 504 h.
In a further data set the test system is GIST430. Briefly: Cytotoxicity against imatinib-resistant human GIST430 cells assessed as decrease in cell viability after 7 days by alamar blue assay. It is filed as functional, cell-based. The note with it: GIST430, 168 h.
For the next data set, the system named is GIST48. Briefly: Cytotoxicity against imatinib-resistant human GIST48 cells assessed as decrease in cell viability after 7 days by alamar blue assay. The note with it: GIST48, 168 h. It is filed as functional, cell-based.

Broadly, the IC50 is the concentration at which inhibition is half-maximal. A word on the GI50: it is the concentration giving 50% growth inhibition.

Turning to `CCNC(=O)c1noc(-c2cc(C(C)C)c(O)cc2O)c1-c1ccc(CN2CCOCC2)cc1` [LUMINESPIB], in the data set with HCC827, the IC50 came to 7 nM.

`COC1=C2C[C@@H](C)C[C@H](OC)[C@H](O)[C@@H](C)/C=C(\C)[C@H](OC(N)=O)[C@@H](OC)/C=C\C=C(/C)C(=O)NC(=CC1=O)C2=O` [GELDANAMYCIN]: the half-inhibitory concentration (IC50) is 1000 to 2000 nM at Bcr/Abl fusion protein [1], 1000 to 2000 nM at Bcr/Abl fusion protein [2] and 5000 nM at Bcr/Abl fusion protein [3].

Take `C=CCNc1c(O)cc2c(O)c1C[C@@H](C)C[C@H](OC)[C@H](O)[C@@H](C)/C=C(\C)[C@H](OC(N)=O)[C@@H](OC)/C=C\C=C(/C)C(=O)N2.Cl` [RETASPIMYCIN HYDROCHLORIDE]: in the data set on NCI-H3122, the GI50 amounted to 76 nM. Besides, the Activity in the data set on Mus musculus [4] is reported as 0.5%.

Regarding `CO[C@H]1/C=C\C=C(/C)C(=O)NC2=CC(=O)C(NCCN(C)C)=C(C[C@@H](C)C[C@H](OC)[C@H](O)[C@@H](C)/C=C(\C)[C@@H]1OC(N)=O)C2=O` [ALVESPIMYCIN], the half-inhibitory concentration (IC50) (in data set [5]; in the data set on PC-9) was 10 to 30 nM throughout.

`CCCS(=O)(=O)Nc1ccc(F)c(C(=O)c2c[nH]c3ncc(-c4ccc(Cl)cc4)cc23)c1F` [VEMURAFENIB]: the IC50 with A-375 [6] came out at 81 nM.

Turning to `C[C@@H](Oc1cc(-c2cnn(C3CCNCC3)c2)cnc1N)c1c(Cl)ccc(F)c1Cl` [CRIZOTINIB], the IC50 in [7] was determined as 202 nM; in data set [8], 240 nM; in [9], 300 nM.

With `Cc1ccc(NC(=O)c2ccc(CN3CCN(C)CC3)cc2)cc1Nc1nccc(-c2cccnc2)n1` [IMATINIB], the Activity in the data set with Mus musculus [10] is 81.5%.

As for `C=CCNC1=C2C[C@@H](C)C[C@H](OC)[C@H](O)[C@@H](C)/C=C(\C)[C@H](OC(N)=O)[C@@H](OC)/C=C\C=C(/C)C(=O)NC(=CC1=O)C2=O` [TANESPIMYCIN], the half-inhibitory concentration (IC50) is 1000 to 2000 nM on Bcr/Abl fusion protein [1], 1000 to 2000 nM at Bcr/Abl fusion protein [2] and 5000 nM at Bcr/Abl fusion protein [3]. For the same molecule, the MTD in data set [11], in data set [12] and in [13] was 75 mg/kg each time.

Take `CC(C)c1cc(-c2n[nH]c(=O)n2-c2ccc3c(ccn3C)c2)c(O)cc1O` [GANETESPIB]: the IC50 in [7] is 13 nM; in the data set with A-375 [6], 15 nM; in data set [8], 10 nM; in the data set “cells” it was 11 nM; in [9] it was 10 nM. In addition, the inhibition in vivo at 150 mg/kg in the data set with A-375 [14] worked out at 84%.

In turn, `CC(C)c1cc(C(=O)N2Cc3ccc(CN4CCN(C)CC4)cc3C2)c(O)cc1O` [ONALESPIB] showed an MTD in data set [15] of 260 mg/m2. For the same molecule, the concentration for half-maximal inhibition (IC50) was found to be 34 nM in the data set with GIST430 and 55 nM in the data set on GIST48.

These data come from ChEMBL document CHEMBL4425084, “Development of Heat Shock Protein (Hsp90) Inhibitors To Combat Resistance to Tyrosine Kinase Inhibitors through Hsp90-Kinase Interactions” (J Med Chem, 2016).
